Results: US9707281B2, “Pharmaceutical compositions and methods for digesting atherosclerotic plaques” (Northwestern University, priority 2010, dated 2017)

Tested on: Human arterial plaque samples
Test: in vitro dissolution and digestion of atherosclerotic plaque specimens (percent reduction of plaque weight)
Conditions: EDTA 0.5-2 mg/ml, β-cyclodextrin 1-100 mMol, tPA 0.5-2 mg/ml, p<0.05
Protocol: Atherosclerotic plaques from surgical endarterectomies were obtained from various anatomic sites. All experiments were performed by cutting a given plaque into equal parts by weight then exposing them to various agents alone and in combination to determine the most optimal digestion solution. The optimal concentration and conditions for plaque dissolution and digestion were determined for ethylenediaminetetraacetic acid (EDTA), β-cyclodextrin, tPA, collagenase type I, III, IV, and V. Weights of each specimen were obtained prior to exposure of each solution and at different time points to determine percent of digested versus undigested plaque. Additional variables that were assessed and optimized include: 1) different combinations of EDTA, β-cyclodextrin, and the collagenases, 2) temperature, 3) pH, and 4) agitation.
Atherosclerotic plaques were obtained from patients undergoing endarterectomies. The optimal concentration and conditions for plaque dissolution and digestion were determined for ethylenediaminetetraacetic acid (EDTA), β-cyclodextrin, and collagenase type I, III, IV, and V. Variables that were assessed included: 1) combination of different agents, 2) time, 3) temperature, 4) pH, and 5) agitation. Weight of each specimen was measured at different time points to determine percent of undigested plaque. […]

For `O=C(O)CN(CCN(CC(=O)O)CC(=O)O)CC(=O)O` [EDTA, ethylenediaminetetraacetic acid], the “reduction in plaque weight, agent alone” value was 15%.

With `OC[C@H]1O[C@@H]2O[C@H]3[C@H](O)[C@@H](O)[C@@H](O[C@H]4[C@H](O)[C@@H](O)[C@@H](O[C@H]5[C@H](O)[C@@H](O)[C@@H](O[C@H]6[C@H](O)[C@@H](O)[C@@H](O[C@H]7[C@H](O)[C@@H](O)[C@@H](O[C@H]8[C@H](O)[C@@H](O)[C@@H](O[C@H]1[C@H](O)[C@H]2O)O[C@@H]8CO)O[C@@H]7CO)O[C@@H]6CO)O[C@@H]5CO)O[C@@H]4CO)O[C@@H]3CO` [β-cyclodextrin] the “reduction in plaque weight, agent alone” value was 2%.
